In test [1] the test system is Mus musculus. The test is described as follows: Anti-P388 Leukemia activity determined when compound 150 mg/kg was administered ip on day 51 on mice expressed as the Long -term survivors (LTS); mice alive/total; total no of mice =6. As to conditions: route intraperitoneal. It is filed as functional.
For test [2], the system named is Mus musculus. Description: Anti-P388 Leukemia activity after 280 mg/kg/injection ip administration on days 5 and 8 expressed as percent of median survival time of drug treated mice compared to saline treated controls. It is filed as functional. The following applies: route intraperitoneal.
For test [3], the system named is Mus musculus. The test is described as follows: Anti-P388 Leukemia activity after 140 mg/kg/injection ip administration on days 5 and 8 expressed as percent of median survival time of drug treated mice compared to saline treated controls. It counts as functional. The following applies: route intraperitoneal.
Test [4] concerns HCT-116. Description: Compound was tested for its in vitro cytotoxicity in HCT116 cell line after 72 hours. It is filed as functional, cell-based. The following applies: Homo sapiens, HCT-116, 72 h.
A short description of test [5]: Ratio of IC50 of HCT-VP35 to IC50 of HCT116. It counts as functional.
In test [6] the test system is HCT-116. Description: Compound was tested for its in vitro cytotoxicity in HCT-VP35 cell line after 72 hours. It is filed as functional, cell-based. As to conditions: Homo sapiens, HCT-116, 72 h.
Test [7] concerns Mus musculus. Description: Anti-P388 Leukemia activity after 70 mg/kg/injection ip administration on days 5 and 8 expressed as percent of median survival time of drug treated mice compared to saline treated controls. The following applies: route intraperitoneal. It counts as functional.
Test [8] has as its system Mus musculus. Description: Anti-P388 Leukemia activity determined when compound 120 mg/kg was administered ip on day 26 on mice expressed as the Long -term survivors (LTS); mice alive/total No of mice tested=6. It is filed as functional. As to conditions: route intraperitoneal.
Test [9] relates to Mus musculus. Description: Anti-P388 Leukemia activity determined when compound 150 mg/kg was administered ip on day 48 on mice expressed as the Long -term survivors (LTS); mice alive/total No of mice tested=6. As to conditions: route intraperitoneal. It counts as functional.
In test [10] the test system is Mus musculus. The test is described as follows: Anti-P388 Leukemia activity determined when compound 150 mg/kg was administered ip on day 48 on mice expressed as the Long -term survivors (LTS); mice alive/total; No of mice tested=6. As to conditions: route intraperitoneal. It is filed as functional.
The nature of test [11]: Ratio of IC50 of HCT-VP35 to IC50 of HCT116. It counts as functional.
Test [12] relates to Mus musculus. Description: Anti-P388 Leukemia activity determined when compound 150 mg/kg was administered ip on day 51 on mice expressed as the Long -term survivors (LTS); mice alive/total. It is filed as functional. The following applies: route intraperitoneal.
The test system of test [13] is Mus musculus. Description: Anti-P388 Leukemia activity determined when compound 120 mg/kg was administered ip on day 53 on mice expressed as the Long -term survivors (LTS); mice alive/total No of mice tested=6. It is filed as functional. The following applies: route intraperitoneal.

The structures appear in SMILES notation. Converted amounts (≈) assume the structure as drawn. Bounds are passed on as bounds.

In the test with Mus musculus [1], `COc1cc2c(cc1OC)[C@@H](O[C@@H]1O[C@@H]3CO[C@@H](C)O[C@H]3[C@H](O)[C@H]1O)[C@H]1COC(=O)[C@@H]1[C@@H]2c1cc(OC)c(O)c(OC)c1` had an LTS of 4. The figures for the T/C with Mus musculus [2], in the test on Mus musculus [3] and in the test on Mus musculus [7] were 228, 189 and 189, respectively. Moreover, the IC50 came out at 1.61 µg/mL (≈ 2.66 µM) in the test on HCT-116 [4] and 10.3 µg/mL (≈ 17.1 µM) in the test on HCT-116 [6]. For the same compound, the Ratio in [5] is 6.4.

`COc1cc([C@@H]2c3cc4c(cc3[C@@H](O[C@@H]3O[C@@H]5CO[C@@H](C)O[C@H]5[C@H](O)[C@H]3O)[C@H]3COC(=O)[C@H]23)OCO4)cc(OC)c1O` [ETOPOSIDE]: the IC50 in the test on HCT-116 [4] was found to be 0.34 µg/mL (≈ 0.578 µM); in the test on HCT-116 [6], 1.78 µg/mL (≈ 3.02 µM). The Ratio in test [5] was 5.2.

For `COc1cc([C@@H]2c3cc4oc(=S)oc4cc3[C@@H](O[C@@H]3O[C@@H]4CO[C@@H](C)O[C@H]4[C@H](O)[C@H]3O)[C@H]3COC(=O)[C@H]23)cc(OC)c1O`, the LTS in the test with Mus musculus [8] worked out at 6. In addition, the results for the T/C in the test on Mus musculus [2], in the test on Mus musculus [3] and in the test on Mus musculus [7] were 170, 155 and 130, respectively. Further, the IC50 with HCT-116 [4] and in the test with HCT-116 [6] was more than 15.6 µg/mL in each case.

Consider `COc1cc([C@@H]2c3cc(OC(=O)OCc4ccccc4)c(OC(=O)OCc4ccccc4)cc3[C@@H](O[C@@H]3O[C@@H]4CO[C@@H](C)O[C@H]4[C@H](O)[C@H]3O)[C@H]3COC(=O)[C@H]23)cc(OC)c1O`, for which the IC50 came to 5.8 µg/mL (≈ 6.87 µM) with HCT-116 [4] and 11.8 µg/mL (≈ 14 µM) in the test with HCT-116 [6]. Besides, in test [5], the Ratio is 2.

With `CCCCCCCC(=O)Oc1cc2c(cc1OC(=O)CCCCCCC)[C@@H](O[C@@H]1O[C@@H]3CO[C@@H](C)O[C@H]3[C@H](O)[C@H]1O)[C@H]1COC(=O)[C@@H]1[C@@H]2c1cc(OC)c(O)c(OC)c1`, the figures for the T/C in the test with Mus musculus [2], in the test with Mus musculus [3] and with Mus musculus [7] were 135, 125 and 120, respectively. Besides, the LTS with Mus musculus [9] was found to be 5. Also, the IC50 with HCT-116 [4] is 8.03 µg/mL (≈ 9.69 µM); in the test with HCT-116 [6] it was 21.7 µg/mL (≈ 26.1 µM). For the same compound, the Ratio in test [5] was determined as 2.7.

`COc1cc([C@@H]2c3cc(O)c(O)cc3[C@@H](O[C@@H]3O[C@@H]4CO[C@@H](C)O[C@H]4[C@H](OC(=O)OCC(Cl)(Cl)Cl)[C@H]3OC(=O)OCC(Cl)(Cl)Cl)[C@H]3COC(=O)[C@H]23)cc(OC)c1OC(=O)OCC(Cl)(Cl)Cl`: the T/C in the test with Mus musculus [2] was 105; in the test with Mus musculus [3], 100; in the test on Mus musculus [7], 100. Moreover, in the test on Mus musculus [10], the LTS is recorded as 5. The IC50 stood at 10.2 µg/mL (≈ 9.27 µM) with HCT-116 [4] and 8.95 µg/mL (≈ 8.12 µM) in the test on HCT-116 [6]. Also, the Ratio in test [5] is 0.87.

On to `COc1cc([C@@H]2c3cc(OC(C)=O)c(OC(C)=O)cc3[C@@H](O[C@@H]3O[C@@H]4CO[C@@H](C)O[C@H]4[C@H](O)[C@H]3O)[C@H]3COC(=O)[C@H]23)cc(OC)c1O`, for which the T/C is recorded as 194 in the test with Mus musculus [2], 167 in the test with Mus musculus [3] and 144 in the test on Mus musculus [7]. The Ratio in test [11] was 1.4. Moreover, the figures for the IC50 in the test on HCT-116 [4] and with HCT-116 [6] were 19.6 µg/mL (≈ 29.6 µM) and 27.1 µg/mL (≈ 41 µM), respectively. Besides, the LTS in the test with Mus musculus [12] was determined as 4.

As for `COc1cc([C@@H]2c3cc(O)c(O)cc3[C@@H](O[C@@H]3O[C@@H]4CO[C@@H](C)O[C@H]4[C@H](O)[C@H]3O)[C@H]3COC(=O)[C@H]23)cc(OC)c1O`, the T/C in the test with Mus musculus [2] worked out at 165; with Mus musculus [3], 130; in the test on Mus musculus [7] it was 125. In addition, the IC50 in the test with HCT-116 [4] and in the test with HCT-116 [6] was more than 15.6 µg/mL each time. In the test with Mus musculus [13], this compound gave an LTS of 2.

(Values after ChEMBL document CHEMBL1126208, “Synthesis and antileukemic activity of etoposide a-ring analogs” (Bioorg Med Chem Lett, 1992).)
